Assay results taken from patent US20080220103A1, “METHOD FOR TREATING/CONTROLLING/KILLING FUNGI AND BACTERIA ON LIVING ANIMALS” (priority 2005, published 2008).
Like-named read-outs stand apart in the source and are kept apart here.

What was measured:
C. parapsilosis = experiment: MIC, CLSI M27-A2; format: cell-based, Candida parapsilosis; settings: Lodderomyces parapsilosis
Procedure: (§1) Minimum Inhibitory Concentration (MIC): Minimum inhibitory concentrations of synthetic and semisynthetic and natural products against dermatophytes were determined using a modification of the Clinical Laboratory Standards Institute (CLSI, formerly National Committee of Clinical Laboratory Standards, NCCLS) M38A standard method for dermatophytes, while MIC of these agents against Candida species were determined using the CLSI M27-A2 methodology. The method used to determine the MIC against bacteria was based on the CLSI document M7-A7.
(§2) The remaining essential oils were prepared in a dilution range of 0.03-16 μg/ml. For Candida the MIC was read at 24 hours and defined as the lowest concentration to inhibit 50% of fungal growth as compared to the growth control (Table 4).

All yeasts = experiment: MIC, CLSI M27-A2, pooled yeasts; format: cell-based, C. albicans, C. parapsilosis; settings: n = 12
Procedure: as §1, §2
(§3) In the following Tables, MIC50 and MIC90 are defined as the minimal concentrations of a compound that can inhibit 50% and 90% of the tested organisms, respectively.

T. mentagrophytes = experiment: Minimum fungicidal concentration (Canton et al.); format: cell-based, Trichophyton mentagrophytes; settings: Trichophyton mentagrophytes
Procedure: (§4) Minimum fungicidal concentration (MFC): The minimum fungicidal concentrations of various agents were determined using the technique described by Canton et al. (Antimicrob Agents Chemother. 2004 8:2477-82). In that method, fungal conidia were collected following growth on potato dextrose agar (PDA) plates and were used to inoculate 96-well plates containing different concentrations of agents. Following incubation at 35° C. for 4 days (for dermatophytes) or 24 hours (for yeast), wells showing no visible growth were cultured to determine the MFC (defined as the lowest concentration of a given agent that kills>99.999% of fungal conidia or spores). The MFC value represents the level of the agent at which spores or conidia were killed.

T. rubrum [1] = experiment: Minimum fungicidal concentration (Canton et al.); format: cell-based, Trichophyton rubrum; settings: for MFC: Trichophyton rubrum
Procedure: as §4

[2] = tested on: All bacteria (Staphylococcus species); experiment: MIC, CLSI M7-A7, pooled bacteria; format: cell-based, S. aureus, S. epidermidis; settings: n = 12
Procedure: as §1
(§5) For bacterial species, the medium used to evaluate the antibacterial activity of agents and essential oils was Mueller-Hinton (Oxoid Ltd., Basingstoke, Hampshire, England). Serial dilutions of miconazole, terbinafine, and tolnaftate were prepared in a range of 0.125-64 μg/ml and serial dilutions of tea tree oil were prepared in a range of 0.0078-4 μg/ml, while those for the rest of the essential oils were prepared in a range 0.031-16 μg/ml.
as §3

E. floccosum [3] = experiment: MIC, modified CLSI M38A broth dilution; format: cell-based, Epidermophyton floccosum
Procedure: as §1
(§6) For dermatophytes, serial dilutions of terbinafine, tolnaftate were prepared in a range of 0.004-2 μg/ml, while for miconazole concentrations ranged between 0.015-8 μg/ml. Finally, for essential oils, the concentrations tested were between 0.03-16 μg/ml. The only exception was tea tree oil where dilutions were prepared in a range of 0.0078-4 μg/ml. The MIC was read at 4 days post inoculation and defined as the lowest concentration of an agent to inhibit 80% of fungal growth as compared to the growth control (Table 2).

S. epidermidis = experiment: MIC, CLSI M7-A7, Mueller-Hinton; format: cell-based; settings: for MIC: read-out: MIC
Procedure: as §1, §5

C. albicans = experiment: MIC, CLSI M27-A2; format: cell-based, Candida albicans
Procedure: as §1, §2

All dermatophytes = experiment: MIC, modified CLSI M38A, pooled dermatophytes; format: cell-based, E. floccosum, T. rubrum, T. mentagrophytes; settings: n = 18
Procedure: as §1, §6, §3

T. rubrum [4] = experiment: MIC, modified CLSI M38A broth dilution; format: cell-based, Trichophyton rubrum
Procedure: as §1, §6

E. floccosum [5] = experiment: Minimum fungicidal concentration (Canton et al.); format: cell-based, Epidermophyton floccosum; settings: Epidermophyton floccosum
Procedure: as §4

[6] = Epidermophyton floccosum, E. floccosum, n = 6
[7] = Staphylococcus epidermidis, S. epidermidis, n = 6
[8] = Candida albicans, C. albicans, n = 6
[9] = Trichophyton rubrum, T. rubrum, n = 6

Clc1ccc(COC(Cn2ccnc2)c2ccc(Cl)cc2Cl)c(Cl)c1 (centres unmarked) [Miconazole, miconazole]
0.5 µg/mL: MIC (S. epidermidis; Staphylococcus epidermidis, S. epidermidis strain 8472) | MIC (S. epidermidis; Staphylococcus epidermidis, S. epidermidis strain 8474) | MFC (E. floccosum [5]; E. floccosum strain 1798, read-out: MFC)
0.06 µg/mL: MIC (E. floccosum [3]; Epidermophyton floccosum, E. floccosum strain 1925)
0.125 to 0.25 µg/mL: MIC Range (T. rubrum [4]; T. rubrum, n = 6)
0.5 to 1 µg/mL: MIC Range (S. epidermidis; S. epidermidis, n = 6)
1 to 8 µg/mL: MFC range (row MIC Range) (T. rubrum [1]; T. rubrum, n = 6)
4 µg/mL: MIC (C. parapsilosis; C. parapsilosis strain 7629) | MIC (C. parapsilosis; C. parapsilosis strain 7995) | MIC (C. parapsilosis; C. parapsilosis strain 8442) | MIC50 (C. parapsilosis; C. parapsilosis, n = 6) | MIC50 (All yeasts) | MFC (T. rubrum [1]; T. rubrum strain 2098, read-out: MFC)
16 µg/mL: MIC (C. parapsilosis; C. parapsilosis strain 7668) | MIC90 (C. parapsilosis; C. parapsilosis, n = 6) | MIC (C. albicans; Candida albicans, C. albicans strain 8283, read-out: MIC) | MIC (C. albicans; Candida albicans, C. albicans, another isolate, read-out: MIC) | MIC90 (C. albicans; [8])
8 µg/mL: MIC (C. parapsilosis; C. parapsilosis strain 7672) | MFC (T. rubrum [1]; T. rubrum strain 1967, read-out: MFC) | MFC (T. rubrum [1]; T. rubrum strain 8063, read-out: MFC) | MFC (T. rubrum [1]; T. rubrum strain 8071, read-out: MFC) | MFC (T. rubrum [1]; T. rubrum strain 8092, read-out: MFC) | MFC (T. rubrum [1]; T. rubrum, n = 6, read-out: MFC, row MIC50) | MFC (T. rubrum [1]; T. rubrum, n = 6, read-out: MFC, row MIC90) | MFC (E. floccosum [5]; E. floccosum strain 1925, read-out: MFC) | MFC (E. floccosum [5]; E. floccosum, n = 6, read-out: MFC, row MIC50)
0.015 to 0.25 µg/mL: MIC Range (All dermatophytes)
> 8 µg/mL: MFC (T. mentagrophytes; T. mentagrophytes strain 2124, read-out: MFC) | MFC (T. mentagrophytes; T. mentagrophytes strain 2125, read-out: MFC) | MFC (T. mentagrophytes; T. mentagrophytes strain 2127, read-out: MFC) | MFC (T. mentagrophytes; T. mentagrophytes strain 2128, read-out: MFC) | MFC (T. mentagrophytes; T. mentagrophytes, n = 6, read-out: MFC, row MIC50) | MFC (T. mentagrophytes; T. mentagrophytes, n = 6, read-out: MFC, row MIC90) | MFC (E. floccosum [5]; E. floccosum strain 1926, read-out: MFC) | MFC (E. floccosum [5]; E. floccosum strain 1961, read-out: MFC) | MFC (E. floccosum [5]; E. floccosum strain 2165, read-out: MFC) | MFC (E. floccosum [5]; E. floccosum, n = 6, read-out: MFC, row MIC90)
> 16 µg/mL: MIC (C. parapsilosis; C. parapsilosis strain 8148) | MIC90 (All yeasts) | MIC (C. albicans; Candida albicans, C. albicans strain 8280 (multi-resistant), read-out: MIC)
0.25 µg/mL: MIC90 (All dermatophytes) | MIC (T. rubrum [4]; Trichophyton rubrum, T. rubrum strain 8071) | MIC (T. rubrum [4]; Trichophyton rubrum, T. rubrum strain 8092) | MIC90 (T. rubrum [4]; [9])
0.125 µg/mL: MIC (E. floccosum [3]; Epidermophyton floccosum, E. floccosum strain 1666) | MIC (E. floccosum [3]; Epidermophyton floccosum, E. floccosum strain 1798) | MIC (E. floccosum [3]; Epidermophyton floccosum, E. floccosum strain 1926) | MIC (E. floccosum [3]; Epidermophyton floccosum, E. floccosum strain 1961) | MIC (E. floccosum [3]; Epidermophyton floccosum, E. floccosum strain 2165) | MIC50 (E. floccosum [3]; [6]) | MIC90 (E. floccosum [3]; [6]) | MIC50 (All dermatophytes) | MIC (T. rubrum [4]; Trichophyton rubrum, T. rubrum strain 1967) | MIC (T. rubrum [4]; Trichophyton rubrum, T. rubrum strain 2098) | MIC (T. rubrum [4]; Trichophyton rubrum, T. rubrum strain 2246) | MIC (T. rubrum [4]; Trichophyton rubrum, T. rubrum strain 8063) | MIC50 (T. rubrum [4]; [9])
1 µg/mL: MFC (T. rubrum [1]; T. rubrum strain 2246, read-out: MFC) | MIC50 ([2]; Staphylococcus) | MIC (S. epidermidis; Staphylococcus epidermidis, S. epidermidis strain 8473) | MIC (S. epidermidis; Staphylococcus epidermidis, S. epidermidis strain 8475) | MIC (S. epidermidis; Staphylococcus epidermidis, S. epidermidis strain 8476) | MIC (S. epidermidis; Staphylococcus epidermidis, S. epidermidis strain 8477) | MIC50 (S. epidermidis; [7]) | MIC90 (S. epidermidis; [7]) | MIC (C. albicans; Candida albicans, 24 h, C. albicans strain 1740, 50% inhibition, 24 hours, read-out: MIC) | MIC (C. albicans; Candida albicans, C. albicans strain 2153, read-out: MIC)
>16 µg/mL: MIC (C. albicans; C. albicans strain 8280 (multi-resistant))
0.06 to 0.125 µg/mL: MIC Range (E. floccosum [3]; E. floccosum, n = 6)
0.5 to 2 µg/mL: MIC Range [2]
1 to 2 µg/mL: MIC (C. albicans; Candida albicans, C. albicans, four isolates, read-out: MIC)
2 µg/mL: MIC90 ([2]; Staphylococcus) | MIC (C. albicans; Candida albicans, C. albicans strain 2108, read-out: MIC) | MIC (C. albicans; Candida albicans, C. albicans strain 8364, read-out: MIC) | MIC50 (C. albicans; [8]) | MFC (E. floccosum [5]; E. floccosum strain 1666, read-out: MFC)
